# Results taken from ChEMBL document CHEMBL1134435, “Synthesis of novel sialylmimetics as biological probes” (Bioorg Med Chem Lett, 2001).
# Experiments:
# [1] = system: Rotavirus; assay: Inhibitory concentration against NCDV (bovine) strain of rotavirus; assay type: functional, organism-based
# [2] = system: Rotavirus; assay: Inhibitory concentration against Wa (human) strain of rotavirus; assay type: functional, organism-based
# [3] = target: T1, E-selectin (Homo sapiens, UniProt P16581); assay: Inhibitory concentration against E-selectin
# T1 sequence (P16581 whole entry): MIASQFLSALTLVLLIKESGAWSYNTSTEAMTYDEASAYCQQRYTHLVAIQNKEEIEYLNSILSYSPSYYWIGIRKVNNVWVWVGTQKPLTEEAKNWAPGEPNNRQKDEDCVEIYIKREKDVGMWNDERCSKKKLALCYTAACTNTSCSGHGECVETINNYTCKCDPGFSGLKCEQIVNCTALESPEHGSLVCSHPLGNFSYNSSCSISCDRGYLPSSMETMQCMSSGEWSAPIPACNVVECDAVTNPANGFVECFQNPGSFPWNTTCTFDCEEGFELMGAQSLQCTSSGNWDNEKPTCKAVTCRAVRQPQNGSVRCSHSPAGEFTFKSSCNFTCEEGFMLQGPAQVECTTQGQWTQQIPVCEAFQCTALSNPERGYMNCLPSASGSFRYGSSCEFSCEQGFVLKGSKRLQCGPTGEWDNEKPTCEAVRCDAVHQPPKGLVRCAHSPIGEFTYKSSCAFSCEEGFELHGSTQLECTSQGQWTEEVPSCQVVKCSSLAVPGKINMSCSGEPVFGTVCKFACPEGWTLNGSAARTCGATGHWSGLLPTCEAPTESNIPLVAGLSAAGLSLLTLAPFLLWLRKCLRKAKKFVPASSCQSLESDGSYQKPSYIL
IC50 [1] [µM],IC50 [2] [µM],IC50 [3] [µM],SMILES
> 25000,> 25000,,COC1OC(CSC(C)C(=O)O)C(O)C(O)C1O (centres undefined)
,,500,C[C@@H]1O[C@@H](O[C@@H]2CCCC[C@H]2O[C@@H]2O[C@@H](CO)[C@H](O)[C@H](OCC(=O)O)[C@@H]2O)[C@@H](O)[C@@H](O)[C@@H]1O
,,700,CC(=O)N[C@H]1[C@H]([C@H](O)[C@H](O)CO)O[C@@](O[C@H]2[C@@H](O)[C@@H](CO)O[C@@H](O[C@@H]([C@H](O[C@@H]3O[C@@H](C)[C@@H](O)[C@@H](O)[C@@H]3O)[C@H](C=O)NC(C)=O)[C@H](O)CO)[C@@H]2O)(C(=O)O)C[C@@H]1O [SIALYL LEWIS X]
